Measurements taken from US5776739A, “Process for producing disaccharides and novel disaccharides” (Kyowa Hakko Kogyo Co., Ltd., priority 1919, dated 1998).

Tests used:
alkaline phosphatase [1] = assay: Residual alkaline phosphatase activity after storage as dried powder (Test Example 4); assay type: biochemical, calf; conditions: sugar 50 mM; dry powder stored at 50° C. for 24 hours
Experimental: (§1) Each of the sample solutions (10 μl) was incubated at 37° C. in 2.0 ml of the reaction mixture consisting of 1M diethanol-amine buffer (pH 10.2), 0.2 mM magnesium chloride and 5 mM p-nitrophenyl phosphoric acid. Then, the enzyme activity was determined by the amount of p-nitrophenol produced therein, which was culculated on the basis of change in absorbance at 405 nm. The activity of each of the sample solutions immediately after the preparation was defined as 100%, and the residual activity in the stored sample solution was calculated.
(§2) A sample solution (unsupplemented) was prepared by diluting alkaline phosphatase with distilled water. Other sample solutions were prepared by adding, to the above solution, trehalose, maltose, glucosyl (α, 1-1)D-fucose or glucosyl (α, 1-4)L-fucose to the concentration of 50 mM. Each of the sample solutions was evaporated at room temperature to dryness using a vacuum pump to obtain dry powder, and the dry powder was stored at 50° C. for 24 hours. The activity of alkaline phosphatase in each of the sample solutions was determined in a manner similar to that employed in Test Example 1. The activity of each of the sample solutions immediately after preparation was defined as 100%, and the residual activity in the stored sample solution was calculated.

alkaline phosphatase [2] = assay: Residual alkaline phosphatase activity after repeated freezing and thawing (Test Example 3); assay type: biochemical, calf; conditions: sugar 50 mM; frozen (dry ice/ethanol) and thawed 10 times
Experimental: as §1
as §2, with “frozen by dry ice/ethanol and thawed” for “evaporated”, “repeatedly 10 times in total.” for “to dryness using a vacuum pump to obtain dry powder, and the dry powder was stored at 50° C. for 24 hours.”, “after the” for “after”, “frozen and thawed” for “stored”

alkaline phosphatase [3] = assay: Residual alkaline phosphatase activity after storage in frozen form (Test Example 2); assay type: biochemical, calf; conditions: sugar 50 mM; stored frozen at -20° C. for 6 days
Experimental: as §1
as §2, with “The” for “Each of the”, “were stored in frozen form at -20° C. for 6 days. After thawing” for “was evaporated”, “temperature,” for “temperature to dryness using a vacuum pump to obtain dry powder, and”, “the” for “the dry powder was stored at 50° C. for 24 hours. The”

alkaline phosphatase [4] = assay: Residual alkaline phosphatase activity after storage as solution at room temperature (Test Example 1); assay type: biochemical, calf; conditions: for effective as a stabilizer for alkaline phosphatase: overall conclusion from Test Examples 1-4; for Residual activity: sugar 50 mM, solution, room temperature (25° C.), 24 hours
Experimental: A sample solution (unsupplemented) was prepared by diluting alkaline phosphatase (derived from calf small intestine, Boehringer Mannheim Biochemica) with distilled water. Other sample solutions were prepared by adding, to the above solution, trehalose, maltose, glucosyl (α, 1-1)D-fucose or glucosyl (α, 1-4)L-fucose to the concentration of 50 mM. The sample solutions were allowed to stand at room temperature (25° C.) for 24 hours, and the activity of alkaline phosphatase in each of the sample solutions was determined.
The activity of alkaline phosphatase was determined as follows.
as §1

[5] = C. Colaco et al., Bio/Technology, 10, 1007-1011 (1992); cited from earlier work

C[C@H]1O[C@H](O[C@H]2O[C@H](CO)[C@@H](O)[C@H](O)[C@H]2O)[C@H](O)[C@@H](O)[C@H]1O [Glucosyl (α, 1-1) D-fucose, glucosyl (α, 1-1)D-fucose]
Residual activity (alkaline phosphatase [1]): 62.5% | Residual activity (alkaline phosphatase [2]): 65.0% | Residual activity (alkaline phosphatase [3]): 36.3% | effective as a stabilizer for alkaline phosphatase (alkaline phosphatase [4]): effective as a stabilizer for alkaline phosphatase | Residual activity (alkaline phosphatase [4]): 21.8%

C[C@@H]1OC(O)[C@@H](O)[C@H](O)[C@@H]1O[C@H]1O[C@H](CO)[C@@H](O)[C@H](O)[C@H]1O (stereo partly drawn) [Glucosyl (α, 1-4) L-fucose, glucosyl (α, 1-4)L-fucose]
Residual activity (alkaline phosphatase [1]): 83.0% | Residual activity (alkaline phosphatase [2]): 106.0% | Residual activity (alkaline phosphatase [3]): 76.0% | effective as a stabilizer for alkaline phosphatase (alkaline phosphatase [4]): effective as a stabilizer for alkaline phosphatase | Residual activity (alkaline phosphatase [4]): 93.7%

OC[C@H]1O[C@H](O[C@H]2[C@H](O)[C@@H](O)[C@H](O)O[C@@H]2CO)[C@H](O)[C@@H](O)[C@@H]1O [Maltose, glucosyl(α,1-4)D-glucose]
Residual activity (alkaline phosphatase [1]): 41.0% | Residual activity (alkaline phosphatase [2]): 16.3% | Residual activity (alkaline phosphatase [3]): 20.0% | effective as a stabilizer for alkaline phosphatase (alkaline phosphatase [4]): effective as a stabilizer for alkaline phosphatase | Residual activity (alkaline phosphatase [4]): 3.3%

OC[C@H]1O[C@H](O[C@H]2O[C@H](CO)[C@@H](O)[C@H](O)[C@H]2O)[C@H](O)[C@@H](O)[C@@H]1O [Trehalose, glucosyl(α,1-1)D-glucose]
enhance the stability of biopolymers such as enzyme proteins [5]: enhance the stability of biopolymers such as enzyme proteins | Residual activity (alkaline phosphatase [1]): 55.0% | Residual activity (alkaline phosphatase [2]): 21.6% | Residual activity (alkaline phosphatase [3]): 26.4% | effective as a stabilizer for alkaline phosphatase (alkaline phosphatase [4]): effective as a stabilizer for alkaline phosphatase | Residual activity (alkaline phosphatase [4]): 9.4%
